From patent US6355799B1, “Substituted benzene compounds, process for their preparation, and herbicidal and defoliant compositions containing them” (ISK Americas Incorporated, priority 1997, dated 2002)

Assays:
Format in all cases: in vivo
[1] = tested on: green foxtail (Setaria viridis, SETVI); experiment: Post-emerge test, greenhouse herbicide activity screening; settings: post-emerge, 14 days after application, rating scale 0-100
In short: (§1)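 Visual ratings on a 0-100 scale (0 no damage, 100 all plants dead) were taken at 14 days after treatment. Rates of 15-1000 g ai/ha in acetone, 187 l/ha, were sprayed onto soil one day after planting (pre-emerge) or onto 2-3 leaf plants with 0.25% v/v surfactant (post-emerge).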

[2] = tested on: sicklepod (Cassia obtusifolia, CASOB); experiment: as above; settings: post-emerge, 14 days after application, rating scale 0-100
In short: as §1

[3] = tested on: redroot pigweed (Amaranthus retroflexus, AMARE); experiment: as above; settings: post-emerge, 14 days after application, rating scale 0-100
In short: as §1

[4] = tested on: johnsongrass (Sorghum halepense, SORHA); experiment: as above; settings: post-emerge, 14 days after application, rating scale 0-100
In short: as §1

[5] = tested on: velvetleaf (Abutilon theophrasti, ABUTH); experiment: as above; settings: post-emerge, 14 days after application, rating scale 0-100
In short: as §1

[6] = tested on: ivyleaf morningglory (Ipomoea hederacea, IPOHE); experiment: as above; settings: post-emerge, 14 days after application, rating scale 0-100
In short: as §1

[7] = tested on: lambsquarters (Chenopodium album, CHEAL); experiment: as above; settings: post-emerge, 14 days after application, rating scale 0-100
In short: as §1

[8] = tested on: barnyardgrass (Echinochloa crus-galli, ECHCG); experiment: as above; settings: post-emerge, 14 days after application, rating scale 0-100
In short: as §1

[9] = tested on: large crabgrass (Digitaria sanguinalis, DIGSA); experiment: as above; settings: post-emerge, 14 days after application, rating scale 0-100
In short: as §1

[10] = tested on: redroot pigweed (Amaranthus retroflexus, AMARE); experiment: Pre-emerge test, greenhouse herbicide activity screening; settings: rated 14 days after application, 0 = no damage, 100 = complete death
In short: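 Compounds in acetone were track-sprayed at 187 l/ha, 15–1000 g ai/ha, onto sandy loam pots. Pre-emerge seeds were sown one day before spraying, with surface watering afterwards. Post-emerge plants were at the 2–3 leaf stage and sprayed with 0.25% v/v non-ionic surfactant. Injury was rated 0–100 at 14 days.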

[11] = tested on: green foxtail (Setaria viridis, SETVI); experiment: as above; settings: rated 14 days after application, 0 = no damage, 100 = complete death
In short: (§2)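 Compounds in acetone were track-sprayed at 15-1000 g ai/ha (187 l/ha) on sandy loam pots: pre-emerge one day after seeding, post-emerge at 2-3 leaf stage with 0.25% v/v non-ionic surfactant. Phytotoxicity was rated 14 days later on a 0 (no damage) to 100 (complete death) scale.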

[12] = tested on: sicklepod (Cassia obtusifolia, CASOB); experiment: as above; settings: rated 14 days after application, 0 = no damage, 100 = complete death
In short: as §2

[13] = tested on: common ragweed (Ambrosia artemisizfolia L., AMBEL); experiment: as above; settings: rated 14 days after application, 0 = no damage, 100 = complete death
In short: as §2

[14] = tested on: johnsongrass (Sorghum halepense, SORHA); experiment: as above; settings: rated 14 days after application, 0 = no damage, 100 = complete death
In short: as §2

[15] = tested on: velvetleaf (Abutilon theophrasti, ABUTH); experiment: as above; settings: rated 14 days after application, 0 = no damage, 100 = complete death
In short: as §2

[16] = tested on: ivyleaf morningglory (Ipomoea hederacea, IPOHE); experiment: as above; settings: rated 14 days after application, 0 = no damage, 100 = complete death
In short: as §2

[17] = tested on: lambsquarters (Chenopodium album, CHEAL); experiment: as above; settings: rated 14 days after application, 0 = no damage, 100 = complete death
In short: as §2

[18] = tested on: barnyardgrass (Echinochloa crus-galli, ECHCG); experiment: as above; settings: rated 14 days after application, 0 = no damage, 100 = complete death
In short: as §2

[19] = tested on: large crabgrass (Digitaria sanguinalis, DIGSA); experiment: as above; settings: rated 14 days after application, 0 = no damage, 100 = complete death
In short: as §2

Cc1c(Cl)cc(F)c(-n2c(=O)cc(C(F)(F)F)n(C)c2=O)c1NC(=O)c1ccc2ccccc2c1 [Compound 2-122, 3-[4-chloro-6-fluoro3-methyl-2-(2-naphthoyl)aminophenyl]-1-methyl-6-trifluoromethyl-2,4(1H, 3H)-pyrimidinedione]
phytotoxicity rating SETVI ([1]; 63 g ai/ha): 90 | phytotoxicity rating SETVI ([1]; 250 g ai/ha): 95 | phytotoxicity rating CASOB ([2]; 63 g ai/ha): 100 | phytotoxicity rating CASOB ([2]; 250 g ai/ha): 100 | phytotoxicity rating AMARE ([3]; 63 g ai/ha): 100 | phytotoxicity rating AMARE ([3]; 250 g ai/ha): 100 | phytotoxicity rating SORHA ([4]; 63 g ai/ha): 30 | phytotoxicity rating SORHA ([4]; 250 g ai/ha): 60 | phytotoxicity rating ABUTH ([5]; 63 g ai/ha): 100 | phytotoxicity rating ABUTH ([5]; 250 g ai/ha): 100 | phytotoxicity rating IPOHE ([6]; 63 g ai/ha): 100 | phytotoxicity rating IPOHE ([6]; 250 g ai/ha): 80 | phytotoxicity rating CHEAL ([7]; 63 g ai/ha): 100 | phytotoxicity rating CHEAL ([7]; 250 g ai/ha): 100 | phytotoxicity rating ECHCG ([8]; 63 g ai/ha): 30 | phytotoxicity rating ECHCG ([8]; 250 g ai/ha): 50 | phytotoxicity rating DIGSA ([9]; 63 g ai/ha): 40 | phytotoxicity rating DIGSA ([9]; 250 g ai/ha): 60 | Pre-emerge Herbicidal Activity, phytotoxicity rating (0-100), AMARE ([10]; 63 g ai/ha): 100 | Pre-emerge Herbicidal Activity, phytotoxicity rating (0-100), AMARE ([10]; 250 g ai/ha): 100 | Pre-emerge Herbicidal Activity, phytotoxicity rating (0-100), SETVI ([11]; 63 g ai/ha): 80 | Pre-emerge Herbicidal Activity, phytotoxicity rating (0-100), SETVI ([11]; 250 g ai/ha): 100 | Pre-emerge Herbicidal Activity, phytotoxicity rating (0-100), CASOB ([12]; 63 g ai/ha): 30 | Pre-emerge Herbicidal Activity, phytotoxicity rating (0-100), CASOB ([12]; 250 g ai/ha): 50 | Pre-emerge Herbicidal Activity, phytotoxicity rating (0-100), AMBEL ([13]; 63 g ai/ha): 30 | Pre-emerge Herbicidal Activity, phytotoxicity rating (0-100), AMBEL ([13]; 250 g ai/ha): 90 | Pre-emerge Herbicidal Activity, phytotoxicity rating (0-100), SORHA ([14]; 63 g ai/ha): 30 | Pre-emerge Herbicidal Activity, phytotoxicity rating (0-100), SORHA ([14]; 250 g ai/ha): 60 | Pre-emerge Herbicidal Activity, phytotoxicity rating (0-100), ABUTH ([15]; 63 g ai/ha): 100 | Pre-emerge Herbicidal Activity, phytotoxicity rating (0-100), ABUTH ([15]; 250 g ai/ha): 100 | Pre-emerge Herbicidal Activity, phytotoxicity rating (0-100), IPOHE ([16]; 63 g ai/ha): 30 | Pre-emerge Herbicidal Activity, phytotoxicity rating (0-100), IPOHE ([16]; 250 g ai/ha): 90 | Pre-emerge Herbicidal Activity, phytotoxicity rating (0-100), CHEAL ([17]; 63 g ai/ha): 100 | Pre-emerge Herbicidal Activity, phytotoxicity rating (0-100), CHEAL ([17]; 250 g ai/ha): 100 | Pre-emerge Herbicidal Activity, phytotoxicity rating (0-100), ECHCG ([18]; 63 g ai/ha): 20 | Pre-emerge Herbicidal Activity, phytotoxicity rating (0-100), ECHCG ([18]; 250 g ai/ha): 80 | Pre-emerge Herbicidal Activity, phytotoxicity rating (0-100), DIGSA ([19]; 63 g ai/ha): 100 | Pre-emerge Herbicidal Activity, phytotoxicity rating (0-100), DIGSA ([19]; 250 g ai/ha): 100
